On the set-up of series [1]: method as in PMID 26100670. As to conditions: in vitro and in vivo studies; cited from earlier work.
For series [2] the following is noted: cited from earlier work.
A short description of series [3]: Solubility of MG005 and MG010. As to conditions: in words. The format is physicochemical.
Series [4] in a line: Pharmacokinetics assessments in phase I patients (plasma, steady state). As to conditions: for Tmax,ss: median (range); for AUC: AUC0→τ,ss. How it is done: This was a dual-agent, open-label, phase I study. […] We conducted the trial following the 3 + 3 dose-escalation phase I clinical trial design. […] There were three cohorts and at least […] were enrolled for each dose level. No intra-patient dose escalation was allowed, and each patient’s first dose was at least 5 days apart from the next patient’s first dose. DLTs were assessed during the initial 8-week and 4-week treatment periods for Cohort 1 and Cohorts 2/3, respectively. The criteria for DLTs are listed in Supplementary Table S1. […] The enrolled patients were treated until disease progression.
A plasma concentration–time profile for MG005 as a single agent was established, and PK parameters in terms of the following were also determined: peak plasma concentration (Cmax)/at steady state (Cmax,ss); time to reach peak concentration (Tmax)/at steady state (Tmax,ss); AUC in 1 dosing interval at steady state (AUC0→τ,ss).

The conditions of series [5]: cited from earlier work. The source holds these as a separate data set.
The mark [6] stands for this setting: Day 28, Cohort 1: 750 mg QD MG005 plus 200 mg QD sorafenib, mean ± SD.
Where [7] appears, read: Day 28, Cohort 2: 1500 mg QD MG005 plus 200 mg QD sorafenib, mean ± SD.
Where [8] appears, read: Day 28, Cohort 2: 1500 mg QD MG005 plus 200 mg QD sorafenib.
Where [9] appears, read: Day 28, Cohort 3: 750 mg BID MG005 plus 200 mg QD sorafenib, mean ± SD.

Like-named read-outs stand apart in the source and are kept apart here.

Consider `O=C1Nc2ccc(I)cc2/C1=C/c1cc(Br)c(O)c(Br)c1` [GW5074], for which the mutagenicity and genotoxicity result in series [1] is recorded as “neither mutagenic nor genotoxic”. In addition, the “findings of repeated toxicity studies” value in series [2] (dog, in vivo) is “did not cause major abnormality except emesis and watery stool”; in series [5] (rat, in vivo), “did not cause major abnormality except emesis and watery stool”. For the same compound, the “no-observed-adverse-effect-level (NOAEL)” value in series [2] (repeated dosing) and in series [5] (repeated dosing) was “highest dose levels tested” each time. In addition, the solubility entry is recorded as “not satisfactory” in series [3] and “poor solubility” in series [3] (listed as MG005). Also, the “AUC0→τ,ss” value in series [4] (setting [6]) came to 5639.9 ± 2675.9 ng·h/mL; in series [4] (setting [7]) it was 5553.7 ± 950.2 ng·h/mL; in series [4] (setting [9]) it was 6249.6 ± 2619.6 ng·h/mL. Further, the “Cmax,ss” value in series [4] (setting [6]) is 685.6 ± 335.4 ng/mL; in series [4] (setting [7]) it was 786.0 ± 180.0 ng/mL; in series [4] (setting [9]), 620.0 ± 382.6 ng/mL. The “Tmax,ss” value in series [4] (Day 28, Cohort 1: 750 mg QD MG005 plus 200 mg QD sorafenib) is listed as 6.0 (5.0–6.0) Hr; in series [4] (setting [8]), 4.0 (2.1–4.1) Hr; in series [4] (Day 28, Cohort 3: 750 mg BID MG005 plus 200 mg QD sorafenib), 14.0 (0.0–23.9) Hr. Besides, the bioavailability entry in series [4] (patients, oral) is recorded as “low bioavailability”. Moreover, the absorption result in series [4] (patients, 750 mg QD to 1500 mg QD gave no significant increase in bioavailability) is recorded as “poor absorption”. Besides, the half-life entry in series [4] (patients, compared to sorafenib) is recorded as “significantly shorter half-life when compared to sorafenib”.
`CNC(=O)c1cc(Oc2ccc(NC(=O)Nc3ccc(Cl)c(C(F)(F)F)c3)cc2)ccn1` [sorafenib, reference compound]: the “Tmax,ss” value in series [4] (setting [8]) is 8.0 (2.1–23.5) Hr. Moreover, the AUC in series [4] (human, plasma, oral, Day 28, Cohort 1: 750 mg QD MG005 plus 200 mg QD sorafenib, mean ± SD) amounted to 88600 ng·h/mL; in series [4] (human, plasma, oral, Day 28, Cohort 2: 1500 mg QD MG005 plus 200 mg QD sorafenib, mean ± SD) it was 51400 ng·h/mL; in series [4] (human, plasma, oral, Day 28, Cohort 3: 750 mg BID MG005 plus 200 mg QD sorafenib, mean ± SD), 30600 ng·h/mL. Further, the maximum concentration (Cmax) in series [4] (human, plasma, oral, Cmax,ss, Day 28, Cohort 2: 1500 mg QD MG005 plus 200 mg QD sorafenib, mean ± SD) turned out to be 3730 ± 1530 ng/mL.
